From US11725199B2, “Lactic acid bacteria with sweetening properties and uses thereof” (DUPONT NUTRITION BIOSCIENCES APS, priority 2017, dated 2023) come the findings set out here.

Positions count from the first letter of the chain named.

Broadly, the Km is the substrate concentration at which the rate is half of its maximum.

What all share (assay): Maximal forward velocity and Km of GlcK, glucose varied (test C)
Common to all, as to assay type: biochemical

Assay [1] deals with T1, Streptococcus thermophilus glucokinase (GlcK) of strain DGCC7710 (DSM28255, GlcK type ST1), non-mutated, SEQ ID NO: 2 (Streptococcus thermophilus, UniProt Q5M4Y5).
T1 construct: G-6PDH/NADP coupled assay
T1 sequence (Q5M4Y5 1-322): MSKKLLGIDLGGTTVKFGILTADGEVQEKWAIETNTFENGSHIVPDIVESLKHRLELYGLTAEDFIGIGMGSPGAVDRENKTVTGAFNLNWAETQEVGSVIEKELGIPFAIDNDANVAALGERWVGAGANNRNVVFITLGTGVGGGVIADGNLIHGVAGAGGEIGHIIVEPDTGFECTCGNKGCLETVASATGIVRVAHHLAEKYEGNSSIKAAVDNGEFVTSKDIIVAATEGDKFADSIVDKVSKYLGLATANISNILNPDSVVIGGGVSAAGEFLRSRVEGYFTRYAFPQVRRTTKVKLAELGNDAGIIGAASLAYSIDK
To be noted: DGCC7710 crude extract; glucose 0, 5, 10, 15, 20 mM; 1 mM ATP; pH 7.2; 30° C; average of three experiments.

The target in assay [2] is T2, Streptococcus thermophilus glucokinase (GlcK) variant E275K of DGCC7710, strain DSM32587 (DGCC12534), SEQ ID NO: 22 (Streptococcus thermophilus, UniProt Q5M4Y5, E275K).
T2 construct: G-6PDH/NADP coupled assay
T2 sequence (Q5M4Y5 1-322 E275K): T1 sequence (Q5M4Y5 1-322) with E275K
To be noted: DSM32587 crude extract, glucose 0, 5, 10, 15, 20 mM, 1 mM ATP, pH 7.2, 30° C. Here is the method: A fresh overnight culture of a Streptococcus thermophilus strain in M17 containing 30 g/L lactose was obtained and used to inoculate at 1% (vol/vol) 10 ml of fresh M17 30 g/L lactose. Cells were harvested by centrifugation (6000 g, 10 min, 4° C.) at a 600 nm optical density (OD600) of 0.8+/−0.2, washed in 5 ml cold GLCK buffer (5 mM MgCl2, 10 mM K2HPO4/KH2PO4 [pH 7.2]), and resuspended in 500 μl cold GLCK buffer. EDTA-free protease inhibitors “cOmplete™” (Roche, supplier reference 04693132001) was added in GLCK buffer as described by the provider. Cells were disrupted by the addition of 100 mg glass beads (150-212 μm, Sigma G1145) to 200 μl resuspended cells and oscillation at a frequency of 30 cycles/s for 6 min in a MM200 oscillating mill (Retsch, Haan, Germany). […] Total protein content was determined by using the FLUKA Protein Quantification Kit-Rapid (ref 51254). The glucokinase activity in the cell extracts was determined spectrophotometrically by a glucose-6-phosphate dehydrogenase (G-6PDH, EC1.1.1.49):[…] assay (Porter et al., 1982), essentially as described by Pool et al. (2006). […] The optical density at 340 nm was measured for 5 minutes by using a Synergy HT multi-detection microplate reader (BIO-TEK). […] Glucokinase activity was calculated as follows: […]

The target of assay [3] is T3, Streptococcus thermophilus glucokinase (GlcK) of strain ST1.1 (parent) (Streptococcus thermophilus, UniProt Q5M4Y5).
T3 construct: G-6PDH/NADP coupled assay
T3 sequence (Q5M4Y5 1-322): T1 sequence (Q5M4Y5 1-322)
How it is done:
(§1) A fresh overnight culture of a Streptococcus thermophilus strain in M17 containing 30 g/L lactose was obtained and used to inoculate at 1% (vol/vol) 10 ml of fresh M17 30 g/L lactose. Cells were harvested by centrifugation (6000 g, 10 min, 4° C.) at a 600 nm optical density (OD600) of 0.8+/−0.2, washed in 5 ml cold GLCK buffer (5 mM MgCl2, 10 mM K2HPO4/KH2PO4 [pH 7.2]), and resuspended in 500 μl cold GLCK buffer. EDTA-free protease inhibitors “cOmplete™” (Roche, supplier reference 04693132001) was added in GLCK buffer as described by the provider. Cells were disrupted by the addition of 100 mg glass beads (150-212 μm, Sigma G1145) to 200 μl resuspended cells and oscillation at a frequency of 30 cycles/s for 6 min in a MM200 oscillating mill (Retsch, Haan, Germany). Cell debris and glass beads were removed by centrifugation (14000 g, 15 min, 4° C.), and supernatant transferred into a clean 1.5 mL centrifuge tube kept on ice. Total protein content was determined by using the FLUKA Protein Quantification Kit-Rapid (ref 51254). The glucokinase activity in the cell extracts was determined spectrophotometrically by a glucose-6-phosphate dehydrogenase (G-6PDH, EC1.1.1.49):[…] assay (Porter et al., 1982), essentially as described by Pool et al. (2006). […] The optical density at 340 nm was measured for 5 minutes by using a Synergy HT multi-detection microplate reader (BIO-TEK). […] Glucokinase activity was calculated as follows:
(§2) Glucokinase activity (U/g of total protein extract)=dOD×V/[dt×l×ε×Qprot], wherein: • dOD is the variation of optical density (OD) at 340 nm • V is the volume of the reaction (herein 250 μL)
(§3) Measurements were triplicated for each sample, and the glucokinase specific activity values given herein under test A are the mean of three independent experiments.
(§4) Measurements were triplicated for each sample, and the Vmax values given herein under test C are the mean of three independent experiments.
(§5) The respective mutants were called ST1.1m-glcK and ST1.2m-glcK. The GlcK sequence of these 2 mutants is as defined in SEQ ID NO:22.

Assay [4] has as its target T4, Streptococcus thermophilus glucokinase (GlcK) of strain ST1.2 (parent) (Streptococcus thermophilus, UniProt Q5M4Y5).
T4 construct: G-6PDH/NADP coupled assay
T4 sequence (Q5M4Y5 1-322): T1 sequence (Q5M4Y5 1-322)
Here is the method:
as §1, §2, §3, §4, §5

The target of assay [5] is T5, Streptococcus thermophilus glucokinase (GlcK) variant E275K of ST1.1, strain ST1.1m-glcK, SEQ ID NO: 22 (Streptococcus thermophilus, UniProt Q5M4Y5, E275K).
T5 construct: G-6PDH/NADP coupled assay
T5 sequence (Q5M4Y5 1-322 E275K): T1 sequence (Q5M4Y5 1-322) with E275K
How it is done: as §1, §2, §3, §4, §5

Assay [6] has as its target T6, Streptococcus thermophilus glucokinase (GlcK) variant E275K of ST1.2, strain ST1.2m-glcK, SEQ ID NO: 22 (Streptococcus thermophilus, UniProt Q5M4Y5, E275K).
T6 construct: G-6PDH/NADP coupled assay
T6 sequence (Q5M4Y5 1-322 E275K): T1 sequence (Q5M4Y5 1-322) with E275K
How it is done: as §1, §2, §3, §4, §5

Turning to `OC[C@H]1OC(O)[C@H](O)[C@@H](O)[C@@H]1O` (some centres unmarked) [glucose], the “Vmax Glucokinase (glucose)” value was 2855 U/g total protein extract in assay [1]; 914 U/g total protein extract in assay [2] (average of three experiments); 2687 U/g total protein extract in assay [3] (ST1.1 crude extract, glucose 0, 5, 10, 15, 20 mM, 1 mM ATP, pH 7.2, 30° C, average of three experiments); 2431 U/g total protein extract in assay [4] (ST1.2 crude extract, glucose 0, 5, 10, 15, 20 mM, 1 mM ATP, pH 7.2, 30° C, average of three experiments); 795 U/g total protein extract in assay [5] (ST1.1m-glcK crude extract, glucose 0, 5, 10, 15, 20 mM, 1 mM ATP, pH 7.2, 30° C, average of three experiments); 501 U/g total protein extract in assay [6] (ST1.2m-glcK crude extract, glucose 0, 5, 10, 15, 20 mM, 1 mM ATP, pH 7.2, 30° C, average of three experiments). The Km in assay [2] (read-out: Km Glucokinase (glucose), average) turned out to be 1330 µM. Further, the “Vm Glucokinase (glucose)” value turned out to be 2687 in assay [3] (ST1.1, summary table); 2431 in assay [4] (ST1.2, summary table); 795 in assay [5] (ST1.1m-glcK, summary table); 501 in assay [6] (ST1.2m-glcK, summary table).
